Laboratory results taken from patent US20080069899A1, “Pharmaceutical Compositions Comprising Beta-Carboline Derivatives and Use Thereof for the Treatment of Cancer” (priority 2004, published 2008).
Where “and” joins values, the source holds several entries; their conditions need not be identical. Identical values can stand only once. Counter-ions that a name gives are not always drawn. Like-named read-outs stand apart in the source and are kept apart here.

Assays:
[1] = test system: malignant and endothelial cells tested; assay: summary of in vitro cytotoxicity over all lines tested; type: cell-based, human; settings: range over the cell lines, read-out: IC50 vis-à-vis malignant and endothelial cells tested
Procedure: (§1) The cytotoxic effects of the different alkaloid extracts of P. harmala were studied on several cell lines: • human leukemia cell lines: K562 and Jurkat (leukemia), U937 (myeloma), • human solid tumor cell lines: KB (epithelioma of the nasopharynx) and HT29 (colon), • immortalized human bone marrow endothelial cell lines: HBMEC.
(§2) The cells are cultured in an oven under a 5% CO2 atmosphere and at 37° C., in RPMI 1640 medium for K562, Jurkat, U937 and HT29 and DMEM for KB, supplemented with 10% foetal calf serum, 0.01% penicillin-streptomycin and L-glutamine 2 mM and in EGM2 medium for the HBMEC cells.
(§3) The cytotoxicity test is carried out in a 96-well microplate in the presence of the extract to be tested at varying concentrations of 40, 20, 10, 5, 1, 0.5 μg/ml and in the absence of product, after incubation for 4 days at 37° C. On the 3rd day, a solution of neutral red is added which is absorbed by living cells. The optical density (OD) of dye released by lyzed cells is measured at 540 nm by an Elisa plate reader. The toxicity (% inhibition of growth) is inversely proportional to the optical density.
(§4) The percentage of inhibition is defined as being the difference between the OD without product and the OD in the presence of product compared to the OD without product.
(§5) The concentration inhibiting 50% of cell growth is obtained from the curve representing the percentage of inhibition as a function of the logarithm of the concentration.
To summarize, the IC50 vis-à-vis malignant and endothelial cells tested is the following: […]

[2] = test system: HT29 human colon tumor cells; assay: in vivo antineoplastic activity, NOD-SCID mice xenografted with HT29 human tumour cells
Procedure: (§6) The animal model chosen is that of severe combined immunodeficient (NOD-SCID) mice having received a xenograft of human tumor cells.
(§7) Male and female NOD-SCID mice, more than 3 months old, were raised in an environment of strict sterility, in an insulator ventilated with filtered air and sterilized, at 22° C. and 40% humidity, with a day-12 h/night-12 h cycle. The cages, feeding bottles and the water were sterilized in an autoclave at 120° C. for 30 minutes and the food as well as the bedding were treated with γ-irradiation. All handling took place in aseptic conditions under a laminar flow hood.
The mice were subjected to general anaesthesia by i.p. injection of 0.3 to 0.4 ml of hypnomidate at 2 mg/ml. 1×10^7 HT29 human colon tumor cells in suspension in 200 μl of PBS were then injected sub-cutaneously, into the backs of the mice. […]
50 mg of 5-fluorouracil (Sigma) were dissolved in 8 ml of water and the solution obtained was sterilized by filtration on a membrane with 0.22 μm porosity. […]

[3] = Procedure: as §6, §7
150 mg of cyclophosphamide (Sigma) were dissolved in 8 ml of water and the solution obtained was sterilized by filtration on a membrane with 0.22 μm porosity.
50 mg of 5-fluorouracil (Sigma) were dissolved in 8 ml of water and the solution obtained was sterilized by filtration on a membrane with 0.22 μm porosity.
100 mg of dihydrated harmalacidine hydrochloride were dissolved in 8 ml of water and the solution obtained was sterilized by filtration on a membrane with 0.22 μm porosity. The mice received either 25, 50, or 100 mg/kg/day of harmalacidine alone, or a mixture of 25 or 50 mg/kg/day of harmalacidine+50 mg/kg/day of cyclophosphamide.

U937 (myeloma) = assay: in vitro cytotoxicity test (neutral red, 96-well microplate); type: cell-based; settings: Homo sapiens, U-937, 96 h, incubation 4 days
Procedure: as §1, §2, §3, §4, §5

Jurkat (leukemia) = assay: as above; type: cell-based; settings: Homo sapiens, 96 h, incubation 4 days
Procedure: as §1, §2, §3, §4, §5

[4] = test system: KB (epithelioma of the nasopharynx); assay: as above; type: cell-based; settings: Homo sapiens, 96 h, incubation 4 days
Procedure: as §1, §2, §3, §4, §5

K562 (leukemia) = assay: as above; type: cell-based; settings: Homo sapiens, incubation 4 days
Procedure: as §1, §2, §3, §4, §5

[5] = test system: HBMEC (immortalized human bone marrow endothelial cell lines); assay: as above; type: cell-based; settings: 96 h, incubation 4 days
Procedure: as §1, §2, §3, §4, §5

dihydrated harmalacidine hydrochloride
IC50 [1]: 34.4 to 134 µM

CC[C@]1(O)C[C@@H]2CN(CCc3c([nH]c4ccccc34)[C@@](C(=O)OC)(c3cc4c(cc3OC)N(C)[C@H]3[C@@](O)(C(=O)OC)[C@H](OC(C)=O)[C@]5(CC)C=CCN6CC[C@]43[C@@H]65)C2)C1 [vinblastine, reference compound]
antineoplastic activity ([2]; vinblastine between 0.125 and 0.5 mg/kg/day, sub-cutaneous administration, until the 40th day): dose-dependent
tolerance of the dose ([3]; mouse, in vivo): not tolerated

CC[C@@]1(O)C(=O)OCc2c1cc1n(c2=O)Cc2cc3ccccc3nc2-1 [Camptothecin, reference compound]
IC50 (U937 (myeloma)): 0.023 µg/mL and 70 nM
IC50 (Jurkat (leukemia)): 0.003 µg/mL and 90 nM
IC50 [4]: 0.035 µg/mL and 100 nM
IC50 (K562 (leukemia); 96 h): 0.014 µg/mL and 40 nM
IC50 [5]: 0.025 µg/mL and 70 nM

COc1ccc2c(c1)[nH]c1c(C)nccc12 [Harmine•HCl•2H2O, dihydrated harmine hydrochloride]
IC50 ([1]; hydrochloride): 10.5 to 35 µM

OC1CCN2Cc3ccccc3N=C12 (centres unmarked) [Peganine (B), Peganine]
IC50 (Jurkat (leukemia)): 75 µg/mL and 399 µM
IC50 [4]: > 50 µg/mL and > 266 µM
IC50 (K562 (leukemia); K562, 96 h): 35 µg/mL and 186 µM

O=c1[nH]cc(F)c(=O)[nH]1 [5-fluorouracil]
Average volume of the tumours of the treated mice compared to the average volume of the tumours of the non-treated mice (T/C) (%) ([2]; 5-fluorouracil 3 mg/kg/day alone per os, Day 15): 43%
Average volume of the tumours of the treated mice compared to the average volume of the tumours of the non-treated mice (T/C) (%) ([2]; 5-fluorouracil 3 mg/kg/day alone per os, Day 30): 56%
Average volume of the tumours of the treated mice compared to the average volume of the tumours of the non-treated mice (T/C) (%) ([2]; 5-fluorouracil 3 mg/kg/day alone per os, Day 40): 66%
Average volume of the tumours of the treated mice compared to the average volume of the tumours of the non-treated mice (T/C) (%) ([2]; 5-fluorouracil 3 mg/kg/day alone per os, Day 50): 61%
Average volume of the tumours of the treated mice compared to the average volume of the tumours of the non-treated mice (T/C) (%) ([2]; 5-fluorouracil 3 mg/kg/day alone per os, Day 60): 86%
Average volume of the tumours of the treated mice compared to the average volume of the tumours of the non-treated mice (T/C) (%) ([2]; 5-fluorouracil 6 mg/kg/day alone per os, Day 15): 37%
Average volume of the tumours of the treated mice compared to the average volume of the tumours of the non-treated mice (T/C) (%) ([2]; 5-fluorouracil 6 mg/kg/day alone per os, Day 30): 53%
Average volume of the tumours of the treated mice compared to the average volume of the tumours of the non-treated mice (T/C) (%) ([2]; 5-fluorouracil 6 mg/kg/day alone per os, Day 40): 60%
Average volume of the tumours of the treated mice compared to the average volume of the tumours of the non-treated mice (T/C) (%) ([2]; 5-fluorouracil 6 mg/kg/day alone per os, Day 50): 64%
Average volume of the tumours of the treated mice compared to the average volume of the tumours of the non-treated mice (T/C) (%) ([2]; 5-fluorouracil 6 mg/kg/day alone per os, Day 60): 70%
Average volume of the tumours of the treated mice compared to the average volume of the tumours of the non-treated mice (T/C) (%) ([2]; 5-fluorouracil 9 mg/kg/day alone per os, Day 15): 41%
Average volume of the tumours of the treated mice compared to the average volume of the tumours of the non-treated mice (T/C) (%) ([2]; 5-fluorouracil 9 mg/kg/day alone per os, Day 30): 41%
Average volume of the tumours of the treated mice compared to the average volume of the tumours of the non-treated mice (T/C) (%) ([2]; 5-fluorouracil 9 mg/kg/day alone per os, Day 40): 59%
Average volume of the tumours of the treated mice compared to the average volume of the tumours of the non-treated mice (T/C) (%) ([2]; 5-fluorouracil 9 mg/kg/day alone per os, Day 50): 52%
Average volume of the tumours of the treated mice compared to the average volume of the tumours of the non-treated mice (T/C) (%) ([2]; 5-fluorouracil 9 mg/kg/day alone per os, Day 60): 59%
Average volume of the tumours of the treated mice compared to the average volume of the tumours of the non-treated mice (T/C) (%) ([2]; 5-fluorouracil 12 mg/kg/day alone per os, Day 15): 73%
Average volume of the tumours of the treated mice compared to the average volume of the tumours of the non-treated mice (T/C) (%) ([2]; 5-fluorouracil 12 mg/kg/day alone per os, Day 30): 66%
Average volume of the tumours of the treated mice compared to the average volume of the tumours of the non-treated mice (T/C) (%) ([2]; 5-fluorouracil 12 mg/kg/day alone per os, Day 40): 54%
Average volume of the tumours of the treated mice compared to the average volume of the tumours of the non-treated mice (T/C) (%) ([2]; 5-fluorouracil 12 mg/kg/day alone per os, Day 50): 47%
Average volume of the tumours of the treated mice compared to the average volume of the tumours of the non-treated mice (T/C) (%) ([2]; 5-fluorouracil 12 mg/kg/day alone per os, Day 60): 59%
T/C ([2]; 5-fluorouracil 24 mg/kg/d, alternating 6 days of treatment and 6 days of rest, until the 20th day of the treatment): 17%
Average volume of the tumours of the treated mice compared to the average volume of the tumours of the non-treated mice (T/C) (%) ([2]; 5-fluorouracil 24 mg/kg/day alone, alternating 6 days of treatment and 6 days of rest, Day 15): 17%
Average volume of the tumours of the treated mice compared to the average volume of the tumours of the non-treated mice (T/C) (%) ([2]; 5-fluorouracil 24 mg/kg/day alone, alternating 6 days of treatment and 6 days of rest, Day 30): 54%
Average volume of the tumours of the treated mice compared to the average volume of the tumours of the non-treated mice (T/C) (%) ([2]; 5-fluorouracil 24 mg/kg/day alone, alternating 6 days of treatment and 6 days of rest, Day 40): 54%
day of administration at which the dose becomes lethal ([3]; both, NOD-SCID, mouse, in vivo): 35 to 45 days

O=P1(N(CCCl)CCCl)NCCCO1 (centres unmarked) [cyclophosphamide]
Average volume of the tumours of the treated mice compared to the average volume of the tumours of the non-treated mice (T/C) (%) ([2]; cyclophosphamide 50 mg/kg/day alone, Day 15): 63%
Average volume of the tumours of the treated mice compared to the average volume of the tumours of the non-treated mice (T/C) (%) ([2]; cyclophosphamide 50 mg/kg/day alone, Day 30): 42%
Average volume of the tumours of the treated mice compared to the average volume of the tumours of the non-treated mice (T/C) (%) ([2]; cyclophosphamide 50 mg/kg/day alone, Day 40): 37%
Average volume of the tumours of the treated mice compared to the average volume of the tumours of the non-treated mice (T/C) (%) ([2]; cyclophosphamide 50 mg/kg/day alone, Day 50): 36%
Average volume of the tumours of the treated mice compared to the average volume of the tumours of the non-treated mice (T/C) (%) ([2]; cyclophosphamide 50 mg/kg/day alone, Day 60): 32%
Average volume of the tumours of the treated mice compared to the average volume of the tumours of the non-treated mice (T/C) (%) ([2]; cyclophosphamide 100 mg/kg/day alone, Day 15): 47%
Average volume of the tumours of the treated mice compared to the average volume of the tumours of the non-treated mice (T/C) (%) ([2]; cyclophosphamide 100 mg/kg/day alone, Day 30): 25%
Average volume of the tumours of the treated mice compared to the average volume of the tumours of the non-treated mice (T/C) (%) ([2]; cyclophosphamide 100 mg/kg/day alone, Day 40): 18%
Average volume of the tumours of the treated mice compared to the average volume of the tumours of the non-treated mice (T/C) (%) ([2]; cyclophosphamide 100 mg/kg/day alone, Day 50): 14%
Average volume of the tumours of the treated mice compared to the average volume of the tumours of the non-treated mice (T/C) (%) ([2]; cyclophosphamide 100 mg/kg/day alone, Day 60): 15%
Average volume of the tumours of the treated mice compared to the average volume of the tumours of the non-treated mice (T/C) (%) ([2]; cyclophosphamide 150 mg/kg/day alone, Day 15): 4%
tolerance of the dose ([3]; cyclophosphamide 150 mg/kg/day alone, all died around the 15th day of treatment): did not tolerate

O=C1NCCc2c1[nH]c1cc(O)ccc21 [Demethyl-harmalacidine (D), demethyl harmalacidine]
IC50 (Jurkat (leukemia)): 8.5 µg/mL and 42 µM
IC50 [4]: 10 µg/mL and 49.5 µM
IC50 (K562 (leukemia); K562, 96 h): 20 µg/mL and 99 µM
IC50 [5]: 17 µg/mL and 84.1 µM
